Experiments:
[1] = molecular target: hOX1R (orexin-1 receptor) (Homo sapiens, UniProt O43613); assay: FLIPR Ca2+ flux assay, hOX1R; format: cell-based; details: CHO cells expressing the orexin-1 receptor (head: hOX1R; method: rat); agonist 70 pM Ala-6,12 orexin-A
human orexin-2 receptor = human orexin-2 receptor (Homo sapiens (Human), UniProt O43614); assay: FLIPR Ca2+ flux assay, hOX2R; format: cell-based; details: CHO cells expressing the human orexin-2 receptor; agonist 70 pM Ala-6,12 orexin-A
Experimental: The utility of the compounds in accordance with the present invention as orexin receptor OX1R and/or OX2R antagonists may be readily determined without undue experimentation by methodology well known in the art, including the “FLIPR Ca^2+ Flux Assay” (Okumura et al., Biochem. Biophys. Res. Comm. 280:976-981, 2001). In a typical experiment the OX1 and OX2 receptor antagonistic activity of the compounds of the present invention was determined in accordance with the following experimental method. For intracellular calcium measurements, Chinese hamster ovary (CHO) cells expressing the rat orexin-1 receptor or the human orexin-2 receptor, are grown in Iscove's modified DMEM containing 2 mM L-glutamine, […], 1% hypoxanthine-thymidine supplement, 100 U/ml penicillin, 100 μg/ml streptomycin and 10% heat-inactivated fetal calf serum (FCS). The cells are seeded at 20,000 cells/well into Becton-Dickinson black 384-well clear bottom sterile plates coated with poly-D-lysine. All reagents were from GIBCO-Invitrogen Corp. The seeded plates are incubated overnight at 37° C. and 5% CO2. Ala-6,12 human orexin-A as the agonist is prepared as a 1 mM stock solution in 1% bovine serum albumin (BSA) and diluted in assay buffer (HBSS containing 20 mM HEPES, 0.1% BSA and 2.5 mM probenecid, pH7.4) for use in the assay at a final concentration of 70pM. Test compounds are prepared as 10 mM stock solution in DMSO, then diluted in 384-well plates, first in DMSO, then assay buffer. On the day of the assay, cells are washed 3 times with 100 μl assay buffer and then incubated for 60 min (37° C., 5% CO2) in 60 μl assay buffer containing 1 μM Fluo-4AM ester, 0.02% pluronic acid, and 1% BSA. The dye loading solution is then aspirated and cells are washed 3 times with 100 μl assay buffer. 30 μl of that same buffer is left in each well. Within the Fluorescent Imaging Plate Reader (FLIPR, Molecular Devices), test compounds are added to the plate in a volume of 25 μl, incubated for 5 min and finally 25 μl of agonist is added. Fluorescence is measured for each well at 1 second intervals for 5 minutes and the height of each fluorescence peak is compared to the height of the fluorescence peak induced by 70 pM Ala-6,12 orexin-A with buffer in place of antagonist. For each antagonist, IC50 value (the concentration of compound needed to inhibit 50% of the agonist response) is determined. Alternatively, compound potency can be assessed by a radioligand binding assay (described in Bergman et. al. Bioorg. Med. Chem. Lett. 2008, 18, 1425-1430) in which the inhibition constant (Ki) is determined in membranes prepared from CHO cells expressing either the OX1 or OX2 receptor. The intrinsic orexin receptor antagonist activity of a compound which may be used in the present invention may be determined by these assays.

human orexin-2 receptor, sequence (O43614 whole entry): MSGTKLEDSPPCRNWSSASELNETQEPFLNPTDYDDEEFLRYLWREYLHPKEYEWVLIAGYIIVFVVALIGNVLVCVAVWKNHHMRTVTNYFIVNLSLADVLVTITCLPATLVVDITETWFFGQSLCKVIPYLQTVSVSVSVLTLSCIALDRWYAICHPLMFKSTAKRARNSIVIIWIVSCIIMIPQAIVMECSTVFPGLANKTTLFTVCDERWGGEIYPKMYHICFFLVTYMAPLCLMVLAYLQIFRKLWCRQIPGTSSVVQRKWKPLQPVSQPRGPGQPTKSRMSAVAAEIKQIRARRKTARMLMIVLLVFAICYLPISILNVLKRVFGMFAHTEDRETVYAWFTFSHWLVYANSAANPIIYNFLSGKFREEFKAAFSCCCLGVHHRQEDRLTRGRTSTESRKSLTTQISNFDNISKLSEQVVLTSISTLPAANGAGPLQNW

C[C@@H]1C[C@@H](Nc2cc(C#N)ccn2)CN1C(=O)c1ccccc1-c1ncccn1 [Example 30, 2-(((3R,5R)-5-Methyl-1-(2-(pyrimidin-2-yl)benzoyl)pyrrolidin-3-yl)amino)isonicotinonitrile]
IC50 [1]: > 10000 nM
IC50 (human orexin-2 receptor): 31.1 nM

COc1c(C#N)ccnc1N[C@@H]1C[C@@H](C)N(C(=O)c2ccccc2-n2nccn2)C1 [Example 39, 2-(((3R,5R)-1-(2-(2H-1,2,3-Triazol-2-yl)benzoyl)-5-methylpyrrolidin-3-yl)amino)-3-methoxyisonicotinonitrile]
IC50 [1]: > 10000 nM
IC50 (human orexin-2 receptor): 40.8 nM

Cc1c(C#N)ccnc1N[C@@H]1C[C@@H](C)N(C(=O)c2ccccc2-n2nccn2)C1 [Example 36, 2-(((3R,5R)-1-(2-(2H-1,2,3-Triazol-2-yl)benzoyl)-5-methylpyrrolidin-3-yl)amino)-3-methylisonicotinonitrile]
IC50 [1]: 3350 nM
IC50 (human orexin-2 receptor): 23.6 nM

C[C@@H]1C[C@@H](Nc2cc(C(F)(F)F)ccn2)CN1C(=O)c1ccccc1-n1nccn1 [Example 14, (2-(2H-1,2,3-triazol-2-yl)phenyl)((2R,4R)-2-methyl-4-((4-(trifluoromethyl)pyridin-2-yl)amino)pyrrolidin-1-yl)methanone]
IC50 [1]: 1090 nM
IC50 (human orexin-2 receptor): 26.3 nM

C[C@@H]1C[C@@H](Nc2cc(OCC(F)F)ccn2)CN1C(=O)c1ccccc1C1(C#N)CC1 [Example 2, 1-(2-((2R,4R)-4-((4-(2,2-difluoroethoxy)pyridin-2-yl)amino)-2-methylpyrrolidine-1-carbonyl)phenyl)cyclopropanecarbonitrile]
IC50 [1]: 10000 nM
IC50 (human orexin-2 receptor): 65.1 nM

C[C@@H]1C[C@@H](Nc2cc(OCC(F)F)ccn2)CN1C(=O)c1ccccc1-n1ncnn1 [Example 3, (2-(2H-tetrazol-2-yl)phenyl)((2R,4R)-4-((4-(2,2-difluoroethoxy)pyridin-2-yl)amino)-2-methylpyrrolidin-1-yl)methanone]
IC50 [1]: > 10000 nM
IC50 (human orexin-2 receptor): 367 nM

COc1cccnc1N[C@@H]1C[C@@H](C)N(C(=O)c2ccccc2-n2nccn2)C1 [Example 25, (2-(2H-1,2,3-triazol-2-yl)phenyl)((2R,4R)-4-((3-methoxypyridin-2-yl)amino)-2-methylpyrrolidin-1-yl)methanone]
IC50 [1]: 3380 nM
IC50 (human orexin-2 receptor): 36.1 nM

C[C@@H]1C[C@@H](Nc2cc(OCC(F)F)ccn2)CN1C(=O)c1ccsc1-c1ncccn1 [Example 4]
IC50 [1]: > 10000 nM
IC50 (human orexin-2 receptor): 520 nM

C[C@@H]1C[C@@H](Nc2nccc3ccccc23)CN1C(=O)c1ccccc1-n1nccn1 [Example 12, (2-(2H-1,2,3-triazol-2-yl)phenyl)((2R,4R)-4-(isoquinolin-1-ylamino)-2-methylpyrrolidin-1-yl)methanone]
IC50 [1]: 257 nM
IC50 (human orexin-2 receptor): 15.3 nM

COc1cccnc1N[C@@H]1C[C@@H](C)N(C(=O)c2nccnc2-c2ccccn2)C1 [Example 44, ((2R,4R)-4-((3-Methoxypyridin-2-yl)amino)-2-methylpyrrolidin-1-yl)(3-(pyridin-2-yl)pyrazin-2-yl)methanone]
IC50 [1]: 10000 nM
IC50 (human orexin-2 receptor): 2370 nM

C[C@@H]1C[C@@H](Nc2cc(OCC(F)F)ccn2)CN1C(=O)c1cccc2c1CCC2 [Example 7, ((2R,4R)-4-((4-(2,2-difluoroethoxy)pyridin-2-yl)amino)-2-methylpyrrolidin-1-yl)(2,3-dihydro-1H-inden-4-yl)methanone]
IC50 [1]: > 10000 nM
IC50 (human orexin-2 receptor): 2000 nM

CCOC(=O)c1c(OC)ccnc1N[C@@H]1C[C@@H](C)N(C(=O)c2ccccc2-n2nccn2)C1 [Example 33, Ethyl 2-(((3R,5R)-1-(2-(2H-1,2,3-triazol-2-yl)benzoyl)-5-methylpyrrolidin-3-yl)amino)-4-methoxynicotinate]
IC50 [1]: 4070 nM
IC50 (human orexin-2 receptor): 31.1 nM

COc1cccnc1N[C@@H]1C[C@@H](C)N(C(=O)c2ccccc2-c2noc(C)n2)C1 [Example 42, ((2R,4R)-4-((3-Methoxypyridin-2-yl)amino)-2-methylpyrrolidin-1-yl)(2-(5-methyl-1,2,4-oxadiazol-3-yl)phenyl)methanone]
IC50 [1]: 10000 nM
IC50 (human orexin-2 receptor): 500 nM

Cc1ccnc(N[C@@H]2C[C@@H](C)N(C(=O)c3ccccc3-n3nccn3)C2)c1 [Example 16, (2-(2H-1,2,3-triazol-2-yl)phenyl)((2R,4R)-2-methyl-4-((4-methylpyridin-2-yl)amino)pyrrolidin-1-yl)methanone]
IC50 [1]: 4070 nM
IC50 (human orexin-2 receptor): 75.9 nM

CC(C)Oc1ccnc(N[C@@H]2C[C@@H](C)N(C(=O)c3ccccc3-n3nccn3)C2)c1 [Example 20, (2-(2H-1,2,3-Triazol-2-yl)phenyl)((2R,4R)-4-((4-isopropoxypyridin-2-yl)amino)-2-methylpyrrolidin-1-yl)methanone]
IC50 [1]: 2800 nM
IC50 (human orexin-2 receptor): 39.8 nM

C[C@@H]1C[C@@H](Nc2cc(C(F)F)ccn2)CN1C(=O)c1ccsc1-n1nccn1 [Example 27, (2-(2H-1,2,3-Triazol-2-yl)thiophen-3-yl)((2R,4R)-4-((4-(difluoromethyl)pyridin-2-yl)amino)-2-methylpyrrolidin-1-yl)methanone]
IC50 [1]: > 10000 nM
IC50 (human orexin-2 receptor): 67.8 nM

CCOc1ccnc(N[C@@H]2C[C@@H](C)N(C(=O)c3ccccc3-n3nccn3)C2)c1 [Example 21, (2-(2H-1,2,3-triazol-2-yl)phenyl)((2R,4R)-4-((4-ethoxypyridin-2-yl)amino)-2-methylpyrrolidin-1-yl)methanone]
IC50 [1]: 3990 nM
IC50 (human orexin-2 receptor): 31.5 nM

C[C@@H]1C[C@@H](Nc2cc(C(F)F)ccn2)CN1C(=O)c1ccccc1-n1nccn1 [Example 9, (2-(2H-1,2,3-triazol-2-yl)phenyl)((2R,4R)-4-((4-(difluoromethyl)pyridin-2-yl)amino)-2-methylpyrrolidin-1-yl)methanone]
IC50 [1]: 1630 nM
IC50 (human orexin-2 receptor): 13.6 nM

COc1ccnc(N[C@@H]2C[C@@H](C)N(C(=O)c3ccccc3-n3nccn3)C2)c1C#N [Example 18, 2-(((3R,5R)-1-(2-(2H-1,2,3-triazol-2-yl)benzoyl)-5-methylpyrrolidin-3-yl)amino)-4-methoxynicotinonitrile]
IC50 [1]: > 10000 nM
IC50 (human orexin-2 receptor): 167 nM

COc1ccnc(N[C@@H]2C[C@@H](C)N(C(=O)c3ccccc3C3(C#N)CC3)C2)c1 [Example 24, 1-(2-((2R,4R)-4-((4-Methoxypyridin-2-yl)amino)-2-methylpyrrolidine-1-carbonyl)phenyl)cyclopropanecarbonitrile]
IC50 [1]: 2720 nM
IC50 (human orexin-2 receptor): 23.9 nM

C[C@@H]1C[C@@H](Nc2cc(OCC(F)F)ccn2)CN1C(=O)c1ccsc1-n1nccn1 [Example 5]
IC50 [1]: > 10000 nM
IC50 (human orexin-2 receptor): 625 nM

Cc1c(C#N)ccnc1N(C)[C@@H]1C[C@@H](C)N(C(=O)c2ccccc2-n2nccn2)C1 [Example 37, 2-(((3R,5R)-1-(2-(2H-1,2,3-Triazol-2-yl)benzoyl)-5-methylpyrrolidin-3-yl)(methyl)amino)-3-methylisonicotinonitrile]
IC50 [1]: > 10000 nM
IC50 (human orexin-2 receptor): 3210 nM

COc1cccnc1N[C@@H]1C[C@@H](C)N(C(=O)c2nccnc2-n2cccn2)C1 [Example 43, (3-(1H-Pyrazol-1-yl)pyrazin-2-yl)((2R,4R)-4-((3-methoxypyridin-2-yl)amino)-2-methylpyrrolidin-1-yl)methanone]
IC50 [1]: 10000 nM
IC50 (human orexin-2 receptor): 1500 nM

CCOc1ccnc(N[C@@H]2C[C@@H](C)N(C(=O)c3ccccc3-n3nccn3)C2)c1C(=O)OC [Example 34, Methyl 2-(((3R,5R)-1-(2-(2H-1,2,3-triazol-2-yl)benzoyl)-5-methylpyrrolidin-3-yl)amino)-4-ethoxynicotinate]
IC50 [1]: > 10000 nM
IC50 (human orexin-2 receptor): 66.2 nM
